“And” between values parts separate entries of the source, which are not always exact repeats. Equal entries are not always repeated. Where two headings read alike, the source gives them in different places.
Columns and labels:
[1] = test system: NO formation; details: oral arginine, cited from earlier work
[2] = children with VOC; cited from earlier work
[3] = test system: NO production; details: acute arginase-induced arginine deficiency; cited from earlier work
[4] = Safety / adverse events (NCI CTCAE) of intravenous citrulline in patients with sickle cell disease; type: in vivo, human
Method: (§1) Background: Hemolysis associated nitric oxide (NO) depletion plays a central role in the pathogenesis of vaso-occlusion in sickle cell disease (SCD). Citrulline is an effective NO booster, even during conditions of inflammation and acute arginase-induced arginine deficiency, characteristic of SCD.
(§2) Methods: Each cohort of participants received an intravenous bolus of 20 mg/kg of citrulline over five minutes with dose increments of 10 mg/kg until a target plasma citrulline level of 80 to 100 μmol/L. FIG. 1. Plasma samples were collected at certain time points for pharmacokinetic studies. Adverse events were followed according to the NCI Common Terminology Criteria for Adverse Events (CTCAE).

[5] = normal volunteers; cited from earlier work
[6] = Plasma arginine level after intravenous bolus citrulline in patients with sickle cell disease; type: in vivo, human; details: within one hour of bolus intravenous citrulline 20 mg/kg; all subjects
Method: as §2

[7] = Oral citrulline in ICU patients: reaching target citrulline level; type: in vivo, human; details: administered orally in an ICU
Description: Oral administration of citrulline obligates the citrulline to pass through the gut and then the liver which removes the citrulline. This is due to the absorption of the citrulline from the gut and transport directly to the liver by the hepatic portal vein in the first pass through the patient's system. […] This would require multiple dosing regimen to achieve a therapeutic plasma level of citrulline. Thus, it is preferable for citrulline therapy to administer the active agent in a manner which bypasses the gut.

[8] = oral twice daily, approximately 0.1 g/kg daily, steady state, cited from earlier work
[9] = cited from earlier work
[10] = Pharmacokinetics of intravenous bolus citrulline in patients with sickle cell disease; type: in vivo, human; details: for clearance: iv
Method: as §1, §2

[11] = inhaled, versus placebo; cited from earlier work
[12] = bolus intravenous citrulline in patients with SCD
[13] = Average of patients 1-4, 20 mg/kg intravenous bolus
[14] = individual patients, 20 mg/kg intravenous bolus over 5 minutes, 20 mg/kg

Structure (SMILES): N=C(N)NCCC[C@H](N)C(=O)O [arginine]
- increase of NO formation ([1]; normal controls): 68%
- change in NO ([1]; steady-state SCD patients, not overcome by higher doses): paradoxical decrease in NO
- pain scores [2]: lowered pain scores
- parenteral opioid use [2]: reducing parenteral opioid use
- NO production [3]: did not increase NO production

Structure (SMILES): NC(=O)NCCCC(N)C(=O)O (centres unmarked) [citrulline, 2-amino-5-(carbamoylamino)pentanoic acid]
- other side effects ([4]; 20 mg/kg intravenous bolus, four participants): no other reported side effects
- safety and tolerability [4, 12]: safe and well tolerated
- transient drop of diastolic blood pressure ([4]; one subject, within 30 minutes of study drug, no intervention needed): > 20%
- circulating arginine concentrations versus oral arginine [5]: increases circulating arginine concentrations more than oral arginine
- rise in arginine level (mean increment) [6]: 182%
- patients who met the target level of citrulline [7]: 2 out of 3
- symptoms of well-being ([8]; ages 10-18): dramatic improvements
- plasma arginine levels [8]: raised plasma arginine levels
- total leukocyte and segmented neutrophil counts [8]: reductions in high total leukocyte and high segmented neutrophil counts toward or to within normal limits
- NO production [3]: increased NO production
- microcirculatory flow [3]: improved microcirculatory flow
- safety and plasma citrulline levels ([9]; intravenous citrulline (Barr 2007)): may be administered safely to increase and maintain plasma citrulline levels
- safety and plasma citrulline levels ([9]; oral citrulline (Smith 2006)): may be administered safely to increase and maintain plasma citrulline levels
- Krem [10, 13]: 1.06 h⁻¹
- V [10, 13]: 0.50 L/kg
- clearance (in words) [10, 12]: rapid clearance
- mean peak level (plasma citrulline) ([10]; first cohort of four participants, intravenous bolus infusion of 20 mg/kg): 259 µmol/L
- clearance ([10]; human, plasma, 20 mg/kg, Average of patients 1-4, 20 mg/kg intravenous bolus): 8.67 mL/min/kg
- clearance ([10]; human, plasma, 20 mg/kg, individual patients, 20 mg/kg intravenous bolus over 5 minutes): 11.7 mL/min/kg
- concentration at 4 h ([10]; human, plasma, 4 hours after the infusion, 20 mg/kg intravenous bolus, read-out: trough level (plasma citrulline)): 20 to 40 µM
- CL [10, 14]: 8.5 mL/min/kg and 6.83 mL/min/kg and 7.67 mL/min/kg
- Krem [10, 14]: 1.01 1/hr (2×) and 1.34 1/hr and 0.89 1/hr
- V [10, 14]: 0.70 L/kg and 0.38 L/kg and 0.46 L/kg (2×)

Structure (SMILES): [N]=O [iNO, nitric oxide]
- effect on time-to-resolution of vaso-occlusive crisis [11]: no effect

From patent publication US12329732B2, “Citrulline for treatment of sickle cell crisis” (Vanderbilt University, priority 2017, dated 2025)
